Data set [1] concerns COC(=O)[C@@H](N)CNC(=O)Nc1ccc([N+](=O)[O-])cc1. Description: Kinetic constant acting as donor substrate for gamma-GGT (Glutamyltranspeptidase)-mediated transpeptidation was determined; Inactive at 2 mM with 33.8 mU of GGT in rat kidney. The data set is classed as tissue-based.
The subject of data set [2] is COC(=O)[C@@H](N)COC(=O)Nc1ccc([N+](=O)[O-])cc1. Description: (§1) Kinetic constant acting as donor substrate for gamma-GGT (Glutamyltranspeptidase)-mediated transpeptidation was determined; in rat kidney; Inactive at 2 mM with 33.8 mU of GGT.
Data set [3] relates to N[C@@H](CNC(=O)Nc1ccc([N+](=O)[O-])cc1)C(=O)O. Described as §1.
For data set [4] the test system is unchanged. Description: Kinetic constant acting as acceptor substrate for gamma-GGT (Glutamyltranspeptidase)-mediated transpeptidation was determined in rat kidney; Solubility- Insoluble for concentration greater than 15 mM.
Data set [5] has as its system COC(=O)[C@@H](N)CCC(=O)Nc1ccc([N+](=O)[O-])cc1. Description: (§2) Kinetic constant acting as donor substrate for GGT (gamma-Glutamyltranspeptidase)-mediated transpeptidation was determined in rat kidney. The data set is classed as tissue-based.
The subject of data set [6] is N[C@@H](CCC(=O)Nc1ccc([N+](=O)[O-])cc1)C(=O)O. The data set is described as §2. The data set is classed as tissue-based.
In data set [7] the test system is COC(=O)[C@@H](N)CO. Description: Kinetic constant acting as donor substrate for gamma-GGT (Glutamyltranspeptidase)-mediated transpeptidation was determined in rat kidney; Not applicable.
The subject of data set [8] is COC(=O)[C@@H](N)CCC(=O)Nc1ccc([N+](=O)[O-])cc1. Description: (§3) Kinetic constant acting as acceptor substrate for gamma-GGT (Glutamyltranspeptidase)-mediated transpeptidation was determined in rat kidney.
The subject of data set [9] is COC(=O)[C@@H](N)CNC(=O)Nc1ccc([N+](=O)[O-])cc1. The description is as §3.
Data set [10] deals with COC(=O)[C@@H](N)COC(=O)Nc1ccc([N+](=O)[O-])cc1. The description is as §3.
Data set [11] deals with COC(=O)[C@@H](N)CO. The description is as §3.
Data set [12] relates to N[C@@H](CCC(=O)Nc1ccc([N+](=O)[O-])cc1)C(=O)O. The description is as §3.
In data set [13] the target is Glutathione hydrolase 1 proenzyme (Rattus norvegicus) (UniProt P07314). Description: Kinetic constant acting as acceptor substrate for gamma-GGT (Glutamyltranspeptidase)-mediated transpeptidation was determined in rat kidney (units are 10e3/min). The format is tissue-based.
Data set [14] shares this target. Nature of the data set: Kinetic constant acting as donor substrate for gamma-GGT (Glutamyltranspeptidase)-mediated transpeptidation was determined (units are 10e3/min); Inactive at 2 mM with 33.8 mU of GGT in rat kidney. The format is tissue-based.
Data set [15] in a line: Ratio of kinetic constant (Kcat/KM) acting as acceptor substrate for gamma-GGT (Glutamyltranspeptidase)-mediated transpeptidation was determined in rat kidney. Details: unit not given here.
A short description of data set [16]: Ratio of kinetic constant (Kcat/KM) acting as donor substrate for gamma-GGT (Glutamyltranspeptidase)-mediated transpeptidation was determined in rat kidney; Inactive at 2 mM with 33.8 mU of GGT in rat kidney.
Data set [17] concerns the target Glutathione hydrolase 1 proenzyme (Rattus norvegicus) (UniProt P07314). Description: Kinetic constant acting as donor substrate for gamma-GGT (Glutamyltranspeptidase)-mediated transpeptidation was determined in rat kidney (units are 10e3/min). The data set is classed as tissue-based.
Data set [18] is described as follows: Ratio of kinetic constant (Kcat/KM) acting as donor substrate for gamma-GGT (Glutamyltranspeptidase)-mediated transpeptidation was determined in rat kidney.
The target of data set [19] is Glutathione hydrolase 1 proenzyme (Rattus norvegicus) (UniProt P07314). Nature of the data set: Kinetic constant acting as acceptor substrate for gamma-GGT (Glutamyltranspeptidase)-mediated transpeptidation was determined in rat kidney (units are 10e3/min); Solubility- Insoluble for concentration greater than 15 mM. The format is tissue-based.
Data set [20] has the same target. Description: Kinetic constant acting as donor substrate for gamma-GGT (Glutamyltranspeptidase)-mediated transpeptidation was determined in rat kidney (units are 10e3/min); Inactive at 2 mM with 33.8 mU of GGT. The data set is classed as tissue-based.
Data set [21] in a line: Ratio of kinetic constant (Kcat/KM) acting as acceptor substrate for gamma-GGT (Glutamyltranspeptidase)-mediated transpeptidation was determined in rat kidney; Solubility- Insoluble for concentration greater than 15 mM.
Data set [22] is described as follows: Ratio of kinetic constant (Kcat/KM) acting as donor substrate for gamma-GGT (Glutamyltranspeptidase)-mediated transpeptidation was determined in rat kidney; Inactive at 2 mM with 33.8 mU of GGT.
For data set [23], the target named is Glutathione hydrolase 1 proenzyme (Rattus norvegicus) (UniProt P07314). Description: Compound was tested for the mixed non-competitive inhibition of rat kidney gamma-glutamyltranspeptidase (gamma-GGT).
The target is the same in data set [24]. Description: Kinetic constant acting as donor substrate for gamma-GGT (Glutamyltranspeptidase)-mediated transpeptidation was determined in rat kidney (units are 10e3/min); Not applicable. The data set is classed as tissue-based.
Data set [25] in a line: Ratio of kinetic constant (Kcat/KM) acting as donor substrate for gamma-GGT (Glutamyltranspeptidase)-mediated transpeptidation was determined in rat kidney; Not applicable.

Calls of active or inactive are those of the source. The rule behind the calls is not given here.

Sequence of Glutathione hydrolase 1 proenzyme (Rattus norvegicus) (P07314 1-379 limits assumed): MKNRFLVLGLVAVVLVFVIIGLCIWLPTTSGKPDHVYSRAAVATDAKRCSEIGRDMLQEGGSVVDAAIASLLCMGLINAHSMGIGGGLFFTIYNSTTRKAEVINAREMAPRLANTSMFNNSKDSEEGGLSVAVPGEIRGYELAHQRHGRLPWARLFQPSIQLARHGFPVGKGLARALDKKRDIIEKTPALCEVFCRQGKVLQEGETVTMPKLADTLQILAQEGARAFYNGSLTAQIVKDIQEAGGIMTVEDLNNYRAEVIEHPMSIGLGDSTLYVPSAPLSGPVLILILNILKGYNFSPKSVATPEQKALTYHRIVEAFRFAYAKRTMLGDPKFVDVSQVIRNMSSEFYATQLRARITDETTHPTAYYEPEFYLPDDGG
Sequence of Glutathione hydrolase 1 proenzyme (Rattus norvegicus) (P07314 380-568 limits assumed): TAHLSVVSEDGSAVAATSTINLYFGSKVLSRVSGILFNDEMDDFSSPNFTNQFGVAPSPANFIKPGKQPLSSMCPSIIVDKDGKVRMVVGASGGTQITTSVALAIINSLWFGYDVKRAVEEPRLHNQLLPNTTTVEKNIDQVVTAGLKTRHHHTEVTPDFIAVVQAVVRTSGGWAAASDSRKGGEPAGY
Sequence of Glutathione hydrolase 1 proenzyme (Rattus norvegicus), P07314 (P07314 whole entry): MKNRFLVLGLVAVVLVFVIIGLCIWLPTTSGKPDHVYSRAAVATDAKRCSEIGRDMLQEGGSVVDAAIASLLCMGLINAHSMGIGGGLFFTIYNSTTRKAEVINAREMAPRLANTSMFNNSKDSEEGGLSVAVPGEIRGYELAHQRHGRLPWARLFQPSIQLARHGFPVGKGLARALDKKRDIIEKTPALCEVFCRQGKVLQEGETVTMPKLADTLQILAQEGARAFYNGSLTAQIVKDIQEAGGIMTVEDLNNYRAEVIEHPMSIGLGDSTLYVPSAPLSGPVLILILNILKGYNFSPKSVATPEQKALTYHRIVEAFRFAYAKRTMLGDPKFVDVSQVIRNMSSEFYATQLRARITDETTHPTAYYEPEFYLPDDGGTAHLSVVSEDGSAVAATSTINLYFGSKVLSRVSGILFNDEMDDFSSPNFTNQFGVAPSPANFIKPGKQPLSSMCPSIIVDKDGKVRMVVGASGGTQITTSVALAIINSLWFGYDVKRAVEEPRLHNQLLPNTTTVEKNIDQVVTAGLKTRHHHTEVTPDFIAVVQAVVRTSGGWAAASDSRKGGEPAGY

By Km is commonly meant the substrate concentration at which the rate is half of its maximum. As for “Glutathione hydrolase 1 proenzyme (Rattus norvegicus), P07314”, the Km result in [1] is “Not Active”; in [2], “Not Active”; in data set [3], “Not Active”; in data set [4], “Insoluble”; in data set [5] it was 5.7 mM; in data set [6], 0.47 mM. Moreover, the Km entry in data set [7] was “Not Active”; in [8], 6 mM; in data set [9], 4 mM; in [10], 1.5 mM; in data set [11] it was 34 mM; in [12] it was 6.3 mM.
As to `COC(=O)[C@@H](N)CNC(=O)Nc1ccc([N+](=O)[O-])cc1`, the k cat in [13] worked out at 102 s⁻¹. Further, in data set [14], the k cat result was “inactive”. The Ratio in data set [15] was 1.4e+06. In [16], the Ratio result is “inactive”.
In the case of `N[C@@H](CCC(=O)Nc1ccc([N+](=O)[O-])cc1)C(=O)O`, the values for the k cat in data set [13] and in [17] were 267 s⁻¹ and 1.15 s⁻¹, respectively. The Ratio came to 2.5e+06 in data set [15] and 1.5e+08 in [18].
On to `COC(=O)[C@@H](N)CCC(=O)Nc1ccc([N+](=O)[O-])cc1`, for which the k cat in [13] amounted to 53.3 s⁻¹; in [17], 25 s⁻¹. Moreover, the Ratio was 580000 in data set [15] and 270000 in [18].
Take `N[C@@H](CNC(=O)Nc1ccc([N+](=O)[O-])cc1)C(=O)O`: the k cat entry in data set [19] is recorded as “Insoluble”. For the same compound, in data set [20], the k cat entry was “inactive”. In addition, in data set [21], the Ratio result is “Insoluble”. Further, in data set [22], the Ratio entry was “inactive”. Further, the Ki' uncomp in [23] was found to be 1700 µM.
In turn, `COC(=O)[C@@H](N)CO` returned a k cat in data set [13] of 21.7 s⁻¹. For the same compound, the k cat result in data set [24] was “inactive”. Further, the Ratio in [15] stood at 38000. Further, the Ratio entry in [25] is “inactive”.
`COC(=O)[C@@H](N)COC(=O)Nc1ccc([N+](=O)[O-])cc1`: in data set [13], the k cat is 80 s⁻¹. Further, the k cat result in data set [20] was “inactive”. Also, the Ratio in [15] came out at 3e+06. Further, the Ratio entry in data set [22] is “inactive”.

Values taken from ChEMBL document CHEMBL1136669, “Synthesis of aza and oxaglutamyl-p-nitroanilide derivatives and their kinetic studies with gamma-glutamyltranspeptidase” (Bioorg Med Chem Lett, 2003).
